According to US20150177246A1, “FUSION GENE OF CEP55 GENE AND RET GENE” (NATIONAL CANCER CENTER, priority 2012, published 2015):

System: downstream signals (STAT3, AKT, MAPK) of the CEP55-RET fusion polypeptide in NIH-3T3 cells
Assay: Western blotting of downstream signals of the RET fusion polypeptide after serum starvation and culture with a RET tyrosine kinase inhibitor
Format: cell-based, murine
Settings: inhibitor 1 μM in medium after serum starvation; NIH-3T3 cells expressing wild-type CEP55-RET; FIG. 7
Excerpt: In this figure, “CEP55-RET” represents the results for cell lines expressing the CEP55-RET fusion polypeptide, and “KIF5B-RET” represents the results for cell lines expressing the KIF5B-RET fusion polypeptide. […] The “STAT3” and “p-STAT3 (Y705)” rows show the results of detecting STAT3 and phosphorylated STAT3, respectively. The “AKT” and “p-AKT (S473)” show the results of detecting AKT and phosphorylated AKT, respectively. The “MAPK” and “p-MAPK (T202/Y204)” rows show the results of detecting MAPK and phosphorylated MAPK, respectively.
Next, normal murine fibroblast line NIH-3T3 cells were infected with each of the thus-prepared retroviral vectors to obtain cell lines stably expressing the wild-type or the mutated CEP55-RET fusion polypeptide.
In addition, the cell lines stably expressing the wild-type or the mutated RET fusion polypeptide were each cultured in a liquid medium, subjected to serum starvation, and then cultured again with the medium being replaced with the one supplemented with a RET tyrosine kinase inhibitor (vandetanib or XL184). Protein from each of the thus-obtained cell lines was extracted and subjected to Western blotting analysis using antibodies against various phosphorylated or unphosphorylated proteins to thereby analyze the downstream signals of the RET fusion polypeptides.

COc1cc2c(Nc3ccc(Br)cc3F)ncnc2cc1OCC1CCN(C)CC1 [V, 4-(4-bromo-2-fluoroanilino)-6-methoxy-7-(1-methylpiperidin-4-ylmethoxy)quinazoline]
phosphorylation of MAPK, p-MAPK (T202/Y204705): significantly suppressed
phosphorylation of STATS, p-STAT3 (Y705): significantly suppressed
